From patent US20080254993A1, “Use of abscisic acid analogs to enhance growth control” (priority 2007, published 2008)

Tests used:
[1] = tested on: Kentucky bluegrass; assay: Greenhouse study on Kentucky bluegrass: turfgrass height, clip weight, turfgrass quality (Example 1); assay type: in vivo
Procedure: Greenhouse studies were conducted at the Research Farm of Valent BioSciences Corporation (Long Grove, Ill.). Grasses were grown in pots (18 cm in diameter and 18 cm in height) filled with Promix BX (available from Premier Horticulture Inc. Quakertown, Pa.). Grass was irrigated daily by an overhead irrigation system. The irrigation system was set up with multiple Tornado Mist Spray Heads (10 GPH at 40 PSI-Wetted diameter, NDS/Raindrip, Woodland Hills, Calif.). Spray heads were 1-meter apart from each other and 75 cm above grass canopy. Grass was cut with a scissor at 2.5 cm height and fertilizer (1 g/L all purpose fertilizer 20-20-20, available from The Scotts Company, Marysville, Ohio) was applied once per week.
(§1) Chemical solutions were prepared with distilled water. Tween 20 (0.05% v/v) was used as the surfactant when necessary. Trinexapac-ethyl (commercial product Primo Maxx, 11.3% active ingredient) was purchased from Syngenta Crop Protection Inc. (Greensboro, N.C.). ABA analogs, 8′ acetylene-ABA, acid (PBI-524), 8′ acetylene-ABA, ester (PBI-429), 8′ cyclopropane ester (PBI-696), or Tetralone, first carbon tail acetylene, ester (PBI-702), were obtained from Plant Biotechnology Institute, National Research Council of Canada (Saskatoon, Saskatchewan, Canada).
(§2) Chemical solutions were foliar applied to the turfgrass canopy at the rate of 4-gallons/1000 square foot (or 0.163 L/m^−2) immediately after finishing the preparation of solutions. After treatment, turfgrasses were arranged in a randomized complete block experimental design. Turfgrass quality, turfgrass height or clip fresh weight was measured on assigned dates. Turfgrass quality was visually rated on a 0-9 scale based on the color, uniformity, and density of the grass with 0 as the worst and 9 as the best. Turfgrass height was measured as the distance between canopy surface and soil. Clippings were collected form each plot; all plots were cut to a uniform height.
(§3) All experiments were randomized complete block experimental design. Data were analyzed by analysis of variance. Duncan's new multiple range tests at α=0.05 were used for mean separations.
Kentucky bluegrass sod was purchased from Deak sod farms, Inc. (Union Grove, Wis.). Grass was grown in the greenhouse for 94 days for establishment. Turfgrass was treated with one time foliar application of 50 ppm PBI-524, PBI-429, PBI-696 or PBI-702 alone or in combination with 250 ppm trinexapac-ethyl. The turfgrass was cut every 7 days. Turfgrass quality, turfgrass height, and clip weight were measured on days 7 and 35 after treatment.

[2] = tested on: creeping bentgrass; assay: Golf course green field study on creeping bentgrass with PBI-702: turfgrass height, soil moisture, turf quality (Example 3); assay type: in vivo, Penncross creeping bentgrass; details: for Soil moisture / Turfgrass height / Turf quality: 50 ppm PBI-702 alone; for Turf quality: visual 0-9 scale, 9 best
Procedure: Field studies were conducted at the nursery green or the practice green at Countryside golf course (Mundelein, Ill.). Both greens were sand based and growing Penncross creeping bentgrass. Grass was managed with typical Illinois golf course management practices.
as §1, §2, §3
Trinexapac-ethyl (25 ppm) or PBI-702 (50 ppm) were one time foliar applied alone or in combination to creeping bentgrass in the golf course green to investigate their effect on turfgrass quality, growth inhibition and soil moisture.

[3] = 7 days after treatment, 50 ppm ABA analog alone
[4] = 35 days after treatment, 50 ppm ABA analog alone

C#CC1(C)CC(=O)C=C(C)C1(O)C=CC(C)=CC(=O)O (stereo not shown) [PBI-524, 8′ acetylene-ABA, acid]
Clip Weight [1, 3]: 0.5 g
Turfgrass height [1, 3]: 5.8 cm
Turfgrass quality ([1]; 7 days after treatment, 50 ppm ABA analog alone, visual 0-9 scale, 9 best): 6.6
Turfgrass height and clip weight compared to the control (in words) ([1]; 7 days after treatment, trinexapac-ethyl 250 ppm, PBI-524 or PBI-429 50 ppm, alone or combined): reduced turfgrass height and clip weight compared to the control
Clip Weight [1, 4]: 1.9 g
Turfgrass height [1, 4]: 8.0 cm
Turfgrass height and clip weight (in words) [1, 4]: no longer reduced turfgrass height and clip weight

COC(=O)/C=C(/C)C#CC1(O)c2ccccc2C(=O)CC1(C)C (stereo not shown) [PBI-702, Tetralone, first carbon tail acetylene, ester]
Soil moisture ([2]; 4 days after treatment): 12.3%
Turfgrass height ([2]; 4 days after treatment): 6.7 mm
Soil moisture ([2]; 7 days after treatment): 11.5%
Turfgrass height ([2]; 7 days after treatment): 6.5 mm
Turf quality ([2]; 7 days after treatment): 7.3
Reducing growth (in words) ([2]; 7 days after treatment, trinexapac-ethyl 25 ppm, PBI-702 50 ppm, alone or combined): effective at reducing growth
Soil moisture ([2]; 38 days after treatment): 12.4%
Turfgrass height ([2]; 38 days after treatment): 5.5 mm
Turf quality ([2]; 38 days after treatment): 7.6
